Converted amounts (≈) assume the structure as drawn. The source made the active and inactive calls. The rule behind the calls is not given here.
Tests used:
[1] = target: T1, Metallo-beta-lactamase type 2 (Bacteria, UniProt C7C422); experiment: Inhibition of NDM-1 (unknown origin) using nitrocefin as substrate assessed as residual activity preincubated for 15 mins followed by substrate addition by absorbance based assay
[2] = target: Metallo-beta-lactamase type 2 (Bacteria) (UniProt C7C422); experiment: Inhibition of NDM-1 (unknown origin) using nitrocefin as substrate assessed as residual activity at 64 ug/ml preincubated for 15 mins followed by substrate addition by absorbance based assay relative to control; conditions: dose 64.0 µg/ml
Metallo-beta-lactamase type 2 (Bacteria), sequence (C7C422 whole entry): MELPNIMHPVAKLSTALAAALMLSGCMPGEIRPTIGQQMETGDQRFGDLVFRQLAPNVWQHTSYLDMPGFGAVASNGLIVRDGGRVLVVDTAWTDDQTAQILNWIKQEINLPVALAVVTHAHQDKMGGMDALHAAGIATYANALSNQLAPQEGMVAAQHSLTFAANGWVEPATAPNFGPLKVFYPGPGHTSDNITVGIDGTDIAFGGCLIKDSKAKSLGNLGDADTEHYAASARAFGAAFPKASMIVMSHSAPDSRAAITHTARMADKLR

[3] = target: T1, Metallo-beta-lactamase type 2; experiment: Inhibition of NDM-1 (unknown origin)
Klebsiella pneumoniae [4] = experiment: Antibacterial activity against Klebsiella pneumoniae K-N-1 assessed as minimum bacteriostatic concentration incubated for 20 hrs; format: functional
Escherichia coli [5] = experiment: Antibacterial activity against Escherichia coli ZJ487 infected in BALB/c mouse assessed as reduction in bacterial count in spleen at 10 mg/kg, sc administered at every 12 hr interval measured after 42 hrs; format: functional, organism-based
Acinetobacter baumannii [6] = experiment: Antibacterial activity against Acinetobacter baumannii aba assessed as minimum bacteriostatic concentration incubated for 20 hrs; format: functional
Escherichia coli [7] = experiment: Antibacterial activity against Escherichia coli ZJ487 infected in BALB/c mouse assessed as reduction in bacterial count in liver at 10 mg/kg, sc administered at every 12 hr interval measured after 42 hrs; format: functional, organism-based
Escherichia coli [8] = experiment: Synergistic bactericidal activity against Escherichia coli ZJ487 at 16 ug/ml incubated for 8 hrs in presence of meropenem; format: functional, organism-based; conditions: dose 16.0 µg/ml
Escherichia coli [9] = experiment: Synergistic antibacterial activity against Escherichia coli BL21 expressing NDM-1 assessed as fractional inhibitory concentration index upto 64 ug/ml incubated for 24 hrs in presence of meropenem by microdilution checkerboard analysis; format: functional; conditions: dose <= 64 µg/ml
Escherichia coli [10] = experiment: Synergistic antibacterial activity against Escherichia coli BL21 assessed as fractional inhibitory concentration index at 8 ug/ml incubated for 20 hrs in presence of meropenem; format: functional; conditions: dose 8 µg/ml
Escherichia coli [11] = experiment: Synergistic antibacterial activity against Escherichia coli BL21 assessed as minimum bacteriostatic concentration of meropenem at 8 ug/ml incubated for 20 hrs; format: functional; conditions: dose 8 µg/ml
Escherichia coli [12] = experiment: Synergistic bactericidal activity against Escherichia coli BL21 expressing NDM-1 at 16 ug/ml incubated for 8 hrs in presence of meropenem; format: functional, organism-based; conditions: dose 16.0 µg/ml
THP-1 = experiment: Cytotoxicity against human THP-1 cells assessed as survival rate at 128 ug/ml incubated for 48 hrs by MTT assay; format: functional; conditions: read-out: Survival
Escherichia coli [13] = experiment: Synergistic antibacterial activity against Escherichia coli ZJ487 infected in BALB/c mouse assessed as reduction in bacterial count in liver at 10 mg/kg, sc administered at every 12 hr interval measured after 42 hrs in presence of meropenem; format: functional, organism-based
Escherichia coli [14] = experiment: Antibacterial activity against Escherichia coli ZJ487 assessed as minimum bacteriostatic concentration incubated for 20 hrs; format: functional
Escherichia coli [15] = experiment: Synergistic antibacterial activity against Escherichia coli ZJ487 assessed as fractional inhibitory concentration index at 8 ug/ml incubated for 20 hrs in presence of meropenem; format: functional; conditions: dose 8 µg/ml
Escherichia coli [16] = experiment: Antibacterial activity against Escherichia coli BL21 assessed as minimum bacteriostatic concentration incubated for 20 hrs; format: functional
Klebsiella pneumoniae [17] = experiment: Synergistic antibacterial activity against Klebsiella pneumoniae K-N-1 assessed as fractional inhibitory concentration index at 8 ug/ml incubated for 20 hrs in presence of meropenem; format: functional; conditions: dose 8 µg/ml
Escherichia coli [18] = experiment: Synergistic antibacterial activity against Escherichia coli ZJ487 assessed as minimum bacteriostatic concentration of meropenem at 8 ug/ml incubated for 20 hrs; format: functional; conditions: dose 8 µg/ml
Klebsiella pneumoniae [19] = experiment: Synergistic antibacterial activity against Klebsiella pneumoniae K-N-1 assessed as minimum bacteriostatic concentration of meropenem at 8 ug/ml incubated for 20 hrs; format: functional; conditions: dose 8 µg/ml
Acinetobacter baumannii [20] = experiment: Synergistic antibacterial against Acinetobacter baumannii aba assessed as minimum bacteriostatic concentration of meropenem at 8 ug/ml incubated for 20 hrs; format: functional; conditions: dose 8 µg/ml
[21] = Metabolic stability in rat plasma assessed as parent compound remaining measured after 48 hrs by HPLC analysis; format: ADME, cell-free; conditions: read-out: Stability
Escherichia coli [22] = experiment: Synergistic antibacterial activity against Escherichia coli ZJ487 infected in BALB/c mouse assessed as reduction in bacterial count in spleen at 10 mg/kg, sc administered at every 12 hr interval measured after 42 hrs in presence of meropenem; format: functional, organism-based
[23] = Cytotoxicity against HEK293T cells assessed as survival rate at 128 ug/ml incubated for 48 hrs by MTT assay; format: toxicity, cell-based, HEK-293T; conditions: human, at 128 µg/mL, read-out: Survival
Acinetobacter baumannii [24] = experiment: Synergistic antibacterial against Acinetobacter baumannii aba assessed as fractional inhibitory concentration index at 8 ug/ml incubated for 20 hrs in presence of meropenem; format: functional; conditions: dose 8 µg/ml
[25] = Metabolic stability in rat liver homogenate assessed as parent compound remaining measured after 48 hrs by HPLC analysis; format: ADME, tissue-based; conditions: read-out: Stability
Escherichia coli [26] = experiment: Synergistic antibacterial activity against Escherichia coli ZJ487 assessed as fractional inhibitory concentration index upto 64 ug/ml incubated for 24 hrs in presence of meropenem by microdilution checkerboard analysis; format: functional; conditions: dose <= 64 µg/ml
[27] = target: T1, Metallo-beta-lactamase type 2; experiment: Inhibition of C-terminal His-tagged NDM-1 (unknown origin) extracted from Escherichia coli BL21 (DE3) using fluorescent cephalosporin as substrate preincubated for 10 mins followed by substrate addition by fluorescence based assay

T1 sequence (C7C422 whole entry): as above

## O=C(O)C1=C(C[Se]c2ccccc2C(=O)Nc2ccccc2)CS[C@@H]2[C@H](NCc3cccs3)C(=O)N12
[1]
  IC50: 52.9 µM
[2]
  Activity: 25.2%

## O=C(O)C1=C(C[Se]c2ccccc2C(=O)Nc2ccccc2)CS[C@@H]2[C@H](NCc3cccc(Cl)c3)C(=O)N12
[2]
  Activity: 60.9%

## O=C(O)C1=C(C[Se]c2ccccc2C(=O)Nc2ccccc2)CS[C@@H]2[C@H](NC(=O)C3CC3)C(=O)N12
[1]
  IC50: 150 µM
[2]
  Activity: 47.3%

## COc1cc(Cl)cc(CN[C@@H]2C(=O)N3C(C(=O)O)=C(C[Se]c4ccccc4C(=O)Nc4ccccc4)CS[C@H]23)c1
[2]
  Activity: 37.9%

## O=C(O)C1=C(C[Se]c2ccccc2C(=O)Nc2ccccc2)CS[C@@H]2[C@H](NCc3cc(F)cc(F)c3)C(=O)N12
[2]
  Activity: 41.1%

## N#Cc1cc(Cl)cc(CN[C@@H]2C(=O)N3C(C(=O)O)=C(C[Se]c4ccccc4C(=O)Nc4ccccc4)CS[C@H]23)c1
[2]
  Activity: 42.3%

## CC(C)(C)OC(=O)NCCCCCCn1[se]c2ccccc2c1=O
[3]
  IC50: 1.26 µM

## O=C(O)C1=C(C[Se]c2ccccc2C(=O)Nc2ccccc2)CS[C@@H]2[C@H](NS(=O)(=O)c3ccccc3)C(=O)N12
[2]
  Activity: 48.4%

## O=C(O)C1=C(C[Se]c2ccccc2C(=O)Nc2ccccc2)CS[C@@H]2[C@H](NCC3CC3)C(=O)N12
[2]
  Activity: 78.2%

## Cc1cc(Cl)cc(CN[C@@H]2C(=O)N3C(C(=O)O)=C(C[Se]c4ccccc4C(=O)Nc4ccccc4)CS[C@H]23)c1
[1]
  IC50: 72.9 µM
[2]
  Activity: 30%

## CS(=O)(=O)N[C@@H]1C(=O)N2C(C(=O)O)=C(C[Se]c3ccccc3C(=O)Nc3ccccc3)CS[C@H]12
[1]
  IC50: 69.7 µM
[2]
  Activity: 48.9%

## O=c1c2ccccc2[se]n1-c1ncccc1-c1ccc(F)cc1
[3]
  IC50: 11.3 µM

## O=C(O)C1=C(C[Se]c2ccccc2C(=O)Nc2ccccc2)CS[C@@H]2[C@H](NS(=O)(=O)c3cccs3)C(=O)N12
[2]
  Activity: 51.6%

## O=C(O)C1=C(C[Se]c2ccccc2C(=O)Nc2ccccc2)CS[C@@H]2[C@H](NCc3cc(Cl)nc(Cl)c3)C(=O)N12
[2]
  Activity: 68.1%

## O=C(O)C1=C(C[Se]c2ccccc2C(=O)Nc2ccccc2)CS[C@@H]2[C@H](NC(=O)n3cnnn3)C(=O)N12
[2]
  Activity: 72.9%

## CC(=O)N[C@@H]1C(=O)N2C(C(=O)O)=C(C[Se]c3ccccc3C(=O)Nc3ccccc3)CS[C@H]12
[2]
  Activity: 88.2%

## C[C@@H](O)[C@H]1C(=O)N2C(C(=O)O)=C(S[C@@H]3CN[C@H](C(=O)N(C)C)C3)[C@H](C)[C@H]12 [MEROPENEM]
Klebsiella pneumoniae [4]
  MIC: > 512 µg/mL
Escherichia coli [5]
  Activity: inactive
Acinetobacter baumannii [6]
  MIC: > 512 µg/mL
Escherichia coli [7]
  Activity: inactive

## CCOC(=O)[C@]1(CS)C[C@H](C(=O)O)C(C)(C)S1
[3]
  IC50: 0.04 µM

## O=c1c2ccccc2[se]n1-c1ccccc1 [EBSELEN]
[1]
  IC50: 16 µM
[2]
  Activity: 8.05%

## O=C(O)C1=C(C[Se]c2ccccc2C(=O)Nc2ccccc2)CS[C@@H]2[C@H](NC(=O)c3cccs3)C(=O)N12
[2]
  Activity: 49.5%

## O=C(Cc1ccccc1)N[C@@H]1C(=O)N2C(C(=O)O)=C(C[Se]c3ccccc3C(=O)Nc3ccccc3)CS[C@H]12
[1]
  IC50: 90.3 µM
[2]
  Activity: 23.9%

## O=C(Cc1ccccc1)N[C@H]1C(=O)N2C(C(=O)O)=C(C[S+]([O-])CCC(=O)Oc3c(F)c(F)c(F)c(F)c3F)C[S+]([O-])[C@@H]12 (stereo not given in full)
[3]
  IC50: 0.39 µM

## O=C(O)C1=C(C[Se]c2ccccc2C(=O)Nc2ccccc2)CS[C@@H]2[C@H](NCc3cc(C(F)(F)F)cc(C(F)(F)F)c3)C(=O)N12
[2]
  Activity: 61.6%

## COc1cc(CN[C@@H]2C(=O)N3C(C(=O)O)=C(C[Se]c4ccccc4C(=O)Nc4ccccc4)CS[C@H]23)cc(OC)c1
[2]
  Activity: 55.8%

## N#CCC(=O)N[C@@H]1C(=O)N2C(C(=O)O)=C(C[Se]c3ccccc3C(=O)Nc3ccccc3)CS[C@H]12
[2]
  Activity: 61.7%

## O=C(O)C1=C(C[Se]c2ccccc2C(=O)Nc2ccccc2)CS[C@@H]2[C@H](NCc3ccc(Cl)cc3)C(=O)N12
[2]
  Activity: 54%

## CCN(CC)[C@@H]1C(=O)N2C(C(=O)O)=C(C[Se]c3ccccc3C(=O)Nc3ccccc3)CS[C@H]12
[2]
  Activity: 70.2%

## O=C(O)C1=C(C[Se]c2ccccc2C(=O)Nc2ccccc2)CS[C@@H]2[C@H](NS(=O)(=O)Cc3ccccc3)C(=O)N12
[2]
  Activity: 63.8%

## CC1=C(C(=O)O)N2C(=O)[C@@H](NCc3cc(Cl)cc(Cl)c3)[C@H]2SC1
[2]
  Activity: 99.6%

## O=C(O)C1=C(C[Se]c2ccccc2C(=O)Nc2ccccc2)CS[C@@H]2[C@H](NCc3ccccc3Cl)C(=O)N12
[2]
  Activity: 66.2%

## O=C(O)C1=C(C[Se]c2ccccc2C(=O)Nc2ccccc2)CS[C@@H]2[C@H](NCc3cc(Cl)cc(Cl)c3)C(=O)N12
Klebsiella pneumoniae [4]
  MIC: 64 µg/mL (≈ 98.9 µM)
Escherichia coli [5]
  Activity: inactive
[1]
  IC50: 7.03 µM
Escherichia coli [8]
  Activity: Not active; Compound Did Not Eradicate Bacteria Completely But Maintained A State Of Significantly Lower Level Compared To Meropenem Alone
Escherichia coli [9]
  fractional inhibitory concentration index (FICI): 0.25
Escherichia coli [10]
  fractional inhibitory concentration index (FICI): 0.141
Acinetobacter baumannii [6]
  MIC: > 512 µg/mL
Escherichia coli [11]
  MIC: 16 µg/mL
Escherichia coli [12]
  Activity: Not active; Compound Did Not Eradicate Bacteria Completely But Maintained A State Of Significantly Lower Level Compared To Meropenem Alone
THP-1
  viability at 128 µg/mL: > 100%
Escherichia coli [13]
  Activity: Active
Escherichia coli [14]
  MIC: 32 µg/mL (≈ 49.4 µM)
Escherichia coli [15]
  fractional inhibitory concentration index (FICI): 0.093
Escherichia coli [16]
  MIC: 128 µg/mL (≈ 198 µM)
Klebsiella pneumoniae [17]
  fractional inhibitory concentration index (FICI): 0.281
Escherichia coli [18]
  MIC: 1 µg/mL
Klebsiella pneumoniae [19]
  MIC: 16 µg/mL
Acinetobacter baumannii [20]
  MIC: 32 µg/mL
[21]
  remaining at 48 h: > 80%
Escherichia coli [7]
  Activity: inactive
Escherichia coli [22]
  Activity: Active
[23]
  viability at 48 h, 128 ug/ml: > 100%
Acinetobacter baumannii [24]
  fractional inhibitory concentration index (FICI): 0.078
[2]
  Activity: 6.53%
[25]
  remaining at 48 h: 59.3%
Escherichia coli [26]
  fractional inhibitory concentration index (FICI): 0.125

## O=C(O)C1=C(C[Se]c2ccccc2C(=O)Nc2ccccc2)CS[C@@H]2[C@H](NCc3cc(F)cc(Cl)c3)C(=O)N12
[1]
  IC50: 77.8 µM
[2]
  Activity: 27.8%

## O=C(O)C1=C(C[Se]c2ccccc2C(=O)Nc2ccccc2)CS[C@@H]2[C@H](NS(=O)(=O)C3CC3)C(=O)N12
[1]
  IC50: 114 µM
[2]
  Activity: 44.1%

## O=C(Cc1ccccc1)N[C@@H]1C(=O)N2C(C(=O)O)=C(CSc3cccc4cccnc34)CS[C@H]12
[27]
  IC50: 2.31 µM

## O=C(O)C1=C(C[Se]c2ccccc2C(=O)Nc2ccccc2)CS[C@@H]2[C@H](NC(=O)c3ccccc3)C(=O)N12
[1]
  IC50: 62.2 µM
[2]
  Activity: 22.3%

## O=C(O)C1=C(C[Se]c2ccccc2C(=O)Nc2ccccc2)CS[C@@H]2[C@H](NCc3ccccc3)C(=O)N12
[1]
  IC50: 37.8 µM
[2]
  Activity: 17.8%

## Cc1cc(C)cc(CN[C@@H]2C(=O)N3C(C(=O)O)=C(C[Se]c4ccccc4C(=O)Nc4ccccc4)CS[C@H]23)c1
[2]
  Activity: 69.3%

— ChEMBL document CHEMBL6153052, “Development of molecular Trojan horses targeting New Delhi metallo-β-lactamase-1 for the restoration of meropenem susceptibility in drug-resistant bacteria” (Eur J Med Chem, 2025)
